Test results published in US12178791B2, “Haloallylamine sulfone derivative inhibitors of lysyl oxidases and uses thereof” (Syntara Limited, priority 2018, dated 2024).
Structures can show the parent of a compound that is named as a salt. Where two headings read alike, the source gives them in different places.

Experiments:
LOXL2 [1] = molecular target: T1, LOXL2 (Homo sapiens (Human), UniProt Q9Y4K0); assay: LOXL2 inhibition, Amplex Red oxidation assay; format: biochemical; conditions: 30 min preincubation at 37 °C, putrescine substrate
T1 sequence (Q9Y4K0 26-774): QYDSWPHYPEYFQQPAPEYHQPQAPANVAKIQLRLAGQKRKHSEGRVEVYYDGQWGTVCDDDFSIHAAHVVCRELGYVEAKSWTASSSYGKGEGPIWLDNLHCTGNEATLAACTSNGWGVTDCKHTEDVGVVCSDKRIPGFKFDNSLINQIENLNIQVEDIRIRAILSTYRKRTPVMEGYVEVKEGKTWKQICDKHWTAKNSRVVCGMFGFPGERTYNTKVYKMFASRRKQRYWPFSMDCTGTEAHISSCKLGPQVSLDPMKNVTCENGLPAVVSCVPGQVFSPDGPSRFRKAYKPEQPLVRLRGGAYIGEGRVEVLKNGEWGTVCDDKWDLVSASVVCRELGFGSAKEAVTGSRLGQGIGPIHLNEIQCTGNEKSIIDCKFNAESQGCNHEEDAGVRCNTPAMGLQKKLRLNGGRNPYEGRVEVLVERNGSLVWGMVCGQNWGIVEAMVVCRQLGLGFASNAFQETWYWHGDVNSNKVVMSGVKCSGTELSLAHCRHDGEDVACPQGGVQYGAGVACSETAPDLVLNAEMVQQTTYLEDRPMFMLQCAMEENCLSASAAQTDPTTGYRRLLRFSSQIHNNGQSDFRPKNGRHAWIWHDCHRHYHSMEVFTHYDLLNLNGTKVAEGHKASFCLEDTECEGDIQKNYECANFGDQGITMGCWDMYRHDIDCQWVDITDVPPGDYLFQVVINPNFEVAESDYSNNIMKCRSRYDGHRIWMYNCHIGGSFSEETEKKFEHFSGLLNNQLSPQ
Method in brief: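 LOXL2 in 1.2 M urea, 50 mM sodium borate pH 8.2 was preincubated with compound (11-point curve) for 30 min at 37 °C; mofegiline/pargyline were added only for non-purified enzyme. Reaction mix held 2× KM putrescine (10 mM), 120 μM Amplex Red and 1.5 U/mL HRP. H2O2 fluorescence (ex 565/em 590 nm) was read over 30 min, and IC50 came from slopes.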

[2] = test system: SiHa cervical cancer cells; conditions: cited from earlier work
[3] = in vivo; cited from earlier work
[4] = test system: desmoplastic ovarian tumour; conditions: mouse, in vivo; cited from earlier work
[5] = molecular target: surgery induced systemic LOX (Mus musculus (Mouse), UniProt P28301); conditions: in vivo; cited from earlier work
surgery induced systemic LOX, sequence (P28301 163-411): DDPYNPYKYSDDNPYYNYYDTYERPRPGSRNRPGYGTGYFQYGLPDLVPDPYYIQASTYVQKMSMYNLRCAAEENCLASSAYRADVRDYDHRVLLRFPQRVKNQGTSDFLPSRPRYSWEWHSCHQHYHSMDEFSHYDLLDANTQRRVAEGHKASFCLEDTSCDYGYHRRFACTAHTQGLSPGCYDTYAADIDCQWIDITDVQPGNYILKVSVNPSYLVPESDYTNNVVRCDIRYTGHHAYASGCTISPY

Bovine LOX = Bovine LOX (Bos taurus (Bovine), UniProt P33072); assay: LOX inhibition, Amplex Red oxidation assay; format: biochemical; conditions: 30 min preincubation at 37 °C, putrescine substrate
Bovine LOX, sequence (P33072 170-418): as the sequence (P28301 163-411) above, with S10T, N31Y, S64A, A84X, N142S, A188N, Q202K, T224S, D231E counted along it
Method in brief: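 Bovine LOX in 1.2 M urea, 50 mM sodium borate pH 8.2, with 1 μM mofegiline and 0.5 mM pargyline unless recombinant or purified. The added mix held putrescine at twice KM (20 mM for LOX), 120 μM Amplex Red and 1.5 U/mL HRP.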

[6] = molecular target: Human recombinant SSAO/VAP-1 (Homo sapiens (Human), UniProt Q16853); assay: Inhibition of human recombinant SSAO/VAP-1; format: biochemical
Human recombinant SSAO/VAP-1, sequence (Q16853 34-763): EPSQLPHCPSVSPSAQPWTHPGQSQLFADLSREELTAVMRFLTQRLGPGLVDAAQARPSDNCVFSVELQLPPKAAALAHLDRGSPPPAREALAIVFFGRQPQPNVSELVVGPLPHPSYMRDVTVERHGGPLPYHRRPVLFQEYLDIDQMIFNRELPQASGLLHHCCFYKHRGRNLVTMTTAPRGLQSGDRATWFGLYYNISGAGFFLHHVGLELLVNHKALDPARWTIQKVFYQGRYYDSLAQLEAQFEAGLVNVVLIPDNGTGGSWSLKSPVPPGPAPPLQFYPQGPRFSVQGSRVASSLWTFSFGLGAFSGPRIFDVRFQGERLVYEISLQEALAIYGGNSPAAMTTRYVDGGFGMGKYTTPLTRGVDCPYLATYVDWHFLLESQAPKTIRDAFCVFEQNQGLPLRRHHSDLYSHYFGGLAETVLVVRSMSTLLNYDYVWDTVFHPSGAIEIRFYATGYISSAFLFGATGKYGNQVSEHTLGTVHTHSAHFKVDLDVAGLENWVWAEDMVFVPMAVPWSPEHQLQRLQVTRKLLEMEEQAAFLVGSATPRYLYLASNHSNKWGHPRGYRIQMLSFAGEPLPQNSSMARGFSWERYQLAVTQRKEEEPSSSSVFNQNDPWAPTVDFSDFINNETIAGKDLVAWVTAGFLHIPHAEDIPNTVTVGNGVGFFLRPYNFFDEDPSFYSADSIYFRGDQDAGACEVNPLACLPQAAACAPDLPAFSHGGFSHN
Method in brief: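 Purified enzyme (residues 34-763, expressed in CHO Lec8 cells; 0.25 μg/mL in 0.1 M sodium phosphate pH 7.4) was preincubated with compound 30 min at 37 °C. An added mix held 600 μM benzylamine, 120 μM Amplex Red and 1.5 U/mL HRP. Fluorescence (ex 565/em 590 nm) was read every 2.5 min for 30 min at 37 °C, and IC50 was derived from kinetic slopes over 4-11-point curves.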

LOX = LOX (Rattus norvegicus (Rat), UniProt P16636); conditions: CIA rats; cited from earlier work
LOX, sequence (P16636 163-411): as the sequence (P28301 163-411) above, with P27S, N31H, N142S, T224S, D231E counted along it

Recombinant human MAO-B = Recombinant human MAO-B (Homo sapiens (Human), UniProt P27338); assay: Inhibition of human recombinant MAO-B; format: biochemical; conditions: benzylamine 100 μM
Recombinant human MAO-B, sequence (P27338 whole entry): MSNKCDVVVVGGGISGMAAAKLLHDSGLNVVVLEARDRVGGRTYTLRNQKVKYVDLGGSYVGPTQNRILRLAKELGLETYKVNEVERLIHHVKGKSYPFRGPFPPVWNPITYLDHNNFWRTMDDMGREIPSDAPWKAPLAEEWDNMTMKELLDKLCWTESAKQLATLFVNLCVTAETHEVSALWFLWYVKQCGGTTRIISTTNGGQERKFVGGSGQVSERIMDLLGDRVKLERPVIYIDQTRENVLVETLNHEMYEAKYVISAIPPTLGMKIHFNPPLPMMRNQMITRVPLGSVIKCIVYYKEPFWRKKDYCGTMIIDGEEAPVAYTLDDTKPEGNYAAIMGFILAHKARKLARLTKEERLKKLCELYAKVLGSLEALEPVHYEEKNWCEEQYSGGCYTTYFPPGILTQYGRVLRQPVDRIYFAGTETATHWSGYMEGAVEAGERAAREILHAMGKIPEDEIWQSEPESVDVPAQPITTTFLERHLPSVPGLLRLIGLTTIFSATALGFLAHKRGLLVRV
Method: The specificity of the compounds of this invention was tested by determining their ability to inhibit MAO-B activities in vitro. Recombinant human MAO-B (0.06 mg/mL; Sigma Aldrich) was used as source of MAO-B enzyme activities. The assay was performed in a similar way as for human SSAO/VAP-1 (Example 28) except, the substrate benzylamine was used at 100 μM.

MMTV-PyMT breast cancer = conditions: in vivo; cited from earlier work
GATA1low mice = assay: Mouse model of primary myelofibrosis; format: in vivo; conditions: 15 mg/kg i.p. four times a week for 10 weeks
Method: Fifteen to sixteen week old GATA1low male and female mice were intra-peritoneal injected with either vehicle (olive oil), or Compound 19 at a dose of 15 mg/kg, four times a week for 10 weeks. The mice were then sacrificed and the spleens and femurs were harvested for histology and analysis (FIGS. 7(a-e) and FIGS. 8(a-d)).

LOXL2 [7] = molecular target: T1, LOXL2; assay: Jump dilution experiment, sustained inhibition of LOXL2; format: biochemical; conditions: jump dilution after 40 min at 37 °C with 10× or 30× IC50; vs non-inhibited controls;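 further: 30× IC50 used only where needed so inhibitor exceeds enzyme concentration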
Method: (§1) Jump Dilution experiment: The assay was developed using a 96 well format and the starting enzyme concentration was set 100 times higher than for the inhibition studies. […] After the incubation, the mixture was diluted 50× in assay buffer, followed by a further 2× dilution in Amplex Red-horseradish peroxidase-putrescine reaction mix (same as per the inhibition studies) prior to the fluorescent measurement. Results were expressed in % recovery of the signal after a specified time by comparison with non-inhibited controls.

LOXL1 = LOXL1 (Homo sapiens (Human), UniProt Q08397); assay: Jump dilution experiment, sustained inhibition of LOXL1; format: biochemical; conditions: jump dilution after 40 min at 37 °C with 10× or 30× IC50; vs non-inhibited controls;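 further: 30× IC50 used only where needed so inhibitor exceeds enzyme concentration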
LOXL1, sequence (Q08397 96-574, species assumed): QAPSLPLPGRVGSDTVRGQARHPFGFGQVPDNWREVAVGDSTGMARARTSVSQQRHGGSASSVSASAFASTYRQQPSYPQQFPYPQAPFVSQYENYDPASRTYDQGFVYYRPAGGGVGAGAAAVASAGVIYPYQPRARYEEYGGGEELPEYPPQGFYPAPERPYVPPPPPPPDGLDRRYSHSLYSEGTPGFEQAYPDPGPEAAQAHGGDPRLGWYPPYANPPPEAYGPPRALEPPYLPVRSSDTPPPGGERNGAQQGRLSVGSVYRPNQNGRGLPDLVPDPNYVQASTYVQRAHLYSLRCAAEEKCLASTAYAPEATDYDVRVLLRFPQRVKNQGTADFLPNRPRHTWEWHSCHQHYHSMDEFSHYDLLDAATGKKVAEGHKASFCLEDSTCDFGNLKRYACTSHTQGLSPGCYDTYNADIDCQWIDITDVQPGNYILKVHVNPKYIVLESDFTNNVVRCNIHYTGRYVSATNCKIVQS
Method: as §1

rhSSAO = rhSSAO (Homo sapiens (Human), UniProt Q16853); assay: Measurement of substrate turnover by SSAO; format: biochemical; conditions: compound 2.5 mM, relative to background (dimethyl sulfoxide only)
rhSSAO, sequence (Q16853 whole entry): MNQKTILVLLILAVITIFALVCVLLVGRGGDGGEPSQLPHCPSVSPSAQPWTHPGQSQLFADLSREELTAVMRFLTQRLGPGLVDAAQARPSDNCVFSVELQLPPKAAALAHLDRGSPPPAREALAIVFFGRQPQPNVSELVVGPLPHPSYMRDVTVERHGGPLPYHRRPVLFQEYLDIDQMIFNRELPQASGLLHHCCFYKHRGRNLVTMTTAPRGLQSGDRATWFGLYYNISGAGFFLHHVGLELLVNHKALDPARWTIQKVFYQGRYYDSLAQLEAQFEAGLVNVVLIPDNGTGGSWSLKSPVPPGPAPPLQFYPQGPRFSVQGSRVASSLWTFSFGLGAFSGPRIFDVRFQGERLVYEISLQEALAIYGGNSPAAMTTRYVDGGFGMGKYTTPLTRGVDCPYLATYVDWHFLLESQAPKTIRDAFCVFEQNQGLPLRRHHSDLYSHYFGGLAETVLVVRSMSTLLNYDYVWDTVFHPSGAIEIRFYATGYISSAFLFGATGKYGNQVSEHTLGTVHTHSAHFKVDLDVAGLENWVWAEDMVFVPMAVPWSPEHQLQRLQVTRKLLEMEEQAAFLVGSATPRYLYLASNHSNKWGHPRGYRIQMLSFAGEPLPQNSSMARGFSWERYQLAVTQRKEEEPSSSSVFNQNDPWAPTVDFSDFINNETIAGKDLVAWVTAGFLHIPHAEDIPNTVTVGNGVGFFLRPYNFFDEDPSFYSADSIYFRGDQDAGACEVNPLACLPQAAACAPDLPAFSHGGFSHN
Method: In brief, the assay employed determines the substrate propensity of a compound relative to background (dimethyl sulfoxide only). Compound oxidation by rhSSAO was measured by fluorometric assay (Holt and Palcic, 2006). Briefly, rhSSAO was incubated for 2 hours at 37° C. in HEPES buffer before the addition of an equal volume of Amplex Red ([…]), horseradish peroxidase (4 U/ml), and Compound (2.5 mM) in the same buffer. The kinetics of the formation of resorufin was measured immediately using Optima reader (BMG Labtech GmbH, Ortenburg, Germany), at 37° C.

[8] = 30 min preincubation at 37 °C, benzylamine 600 μM, read-out: SSAO/VAP-1 Activity IC50

Structure (SMILES)	IC50 (LOXL2 [1])	increased invasion in vitro under hypoxic/anoxic conditions [2]	tolerability in human patients with scleroderma [3]	lung metastasis [4]	survival [4]	metastasis and survival after surgery induced systemic LOX [5]	IC50 (Bovine LOX)	IC50 [6, 8]	inflammation, synovial hyperplasia, angiogenesis and expression of MMP-2 and MMP-9 (LOX)	IC50 (Recombinant human MAO-B)	metastasis and survival (MMTV-PyMT breast cancer)	Bone marrow (BM) and splenic fibrosis (GATA1low mice; vs vehicle)	Morphologic BM megakaryocytes (MKs) on H&E stain (GATA1low mice; p<0.001 vs vehicle)	platelet count post-treatment (GATA1low mice; p<0.05 vs vehicle)	spleen weights adjusted to body weight (GATA1low mice; p<0.05 vs vehicle)	LOXL2 - Recovery of activity. (%) (LOXL2 [7])	LOXL1 - Recovery of activity. (%) (LOXL1)	IC50 ([6]; second Table 6 (Example 38), read-out: Recombinant human SSAO (rhSSAO) inhibition (IC50))	Substrate activity for rhSSAO (rhSSAO)
N#CCCN [BAPN, β-aminopropionitrile]	< 1 µM	repressed	poorly tolerated	decreased	significantly increased	reducing metastasis and increasing survival	< 10 µM	> 30 µM	attenuate	> 30 µM	–	–	–	–	–	–	–	–	–
CS(=O)(=O)c1cc(-c2ccccc2)cc(S(=O)(=O)c2ccc(CN)s2)c1 [CCT365623]	–	–	–	–	–	–	–	–	–	–	reduce metastasis and increase survival	–	–	–	–	–	–	–	–
NC/C=C(\F)CS(=O)(=O)c1ccccc1Cl [Compound 19, (Z)-4-(2-chlorophenylsulfonyl)-3-fluorobut-2-en-1-amine hydrochloride]	< 1 µM	–	–	–	–	–	< 10 µM	> 30 µM	–	> 30 µM	–	significantly decreased	24.65±0.6 per 20× field	77.5±4.4 K/uL	242.25 ± 18 mg	7.9%	7.8%	–	–
NC/C=C(\F)CS(=O)(=O)c1cccnc1 [Compound 31, (Z)-3-fluoro-4-(pyridin-3-ylsulfonyl)but-2-en-1-amine dihydrochloride]	< 1 µM	–	–	–	–	–	< 10 µM	> 30 µM	–	–	–	–	–	–	–	–	8.2%	27 µM	no significant turnover
